According to ChEMBL document CHEMBL3784918, “Novel 2,4-diaminopyrimidines bearing tetrahydronaphthalenyl moiety against anaplastic lymphoma kinase (ALK): Synthesis, in vitro, ex vivo, and in vivo efficacy studies” (Bioorg Med Chem Lett, 2016):
Activity calls are given as the source filed them. The calls are words filed in the database; no cut-off is given here.

How the values were obtained:
[1] = target: Fibroblast growth factor receptor 1 (Homo sapiens) (UniProt P11362); experiment: Inhibition of human FGFR1 at 1 uM after 30 mins by fluorescence assay in presence of ATP
Fibroblast growth factor receptor 1 (Homo sapiens), sequence (P11362 22-822 limits assumed): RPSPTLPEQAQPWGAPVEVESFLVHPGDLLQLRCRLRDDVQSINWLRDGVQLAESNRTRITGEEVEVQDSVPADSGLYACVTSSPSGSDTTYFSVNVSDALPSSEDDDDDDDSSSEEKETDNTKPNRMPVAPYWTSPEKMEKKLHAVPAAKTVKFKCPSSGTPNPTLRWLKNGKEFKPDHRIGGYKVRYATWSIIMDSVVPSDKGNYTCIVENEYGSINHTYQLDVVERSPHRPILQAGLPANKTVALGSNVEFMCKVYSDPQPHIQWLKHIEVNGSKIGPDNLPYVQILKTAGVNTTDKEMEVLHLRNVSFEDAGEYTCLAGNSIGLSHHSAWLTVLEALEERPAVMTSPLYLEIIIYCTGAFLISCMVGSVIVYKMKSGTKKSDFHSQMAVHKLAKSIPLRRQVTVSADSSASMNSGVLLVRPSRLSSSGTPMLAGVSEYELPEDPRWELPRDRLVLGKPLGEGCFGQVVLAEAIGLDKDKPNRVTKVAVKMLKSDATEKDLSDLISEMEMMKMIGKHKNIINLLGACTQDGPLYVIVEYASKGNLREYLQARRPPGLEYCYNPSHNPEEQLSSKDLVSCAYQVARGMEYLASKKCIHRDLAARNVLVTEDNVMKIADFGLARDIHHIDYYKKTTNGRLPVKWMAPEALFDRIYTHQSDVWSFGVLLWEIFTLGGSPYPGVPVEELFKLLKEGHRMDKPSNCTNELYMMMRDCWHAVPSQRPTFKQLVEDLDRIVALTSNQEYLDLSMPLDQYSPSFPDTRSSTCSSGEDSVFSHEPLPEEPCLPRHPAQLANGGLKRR

[2] = target: T1, ALK tyrosine kinase receptor (Homo sapiens, UniProt Q9UM73); experiment: Inhibition of human ALK at 1 uM after 30 mins by fluorescence assay in presence of ATP
[3] = target: Serine/threonine-protein kinase Chk2 (Homo sapiens) (UniProt O96017); experiment: Inhibition of human CHK2 at 1 uM after 30 mins by fluorescence assay in presence of ATP
Serine/threonine-protein kinase Chk2 (Homo sapiens), sequence (O96017 whole entry): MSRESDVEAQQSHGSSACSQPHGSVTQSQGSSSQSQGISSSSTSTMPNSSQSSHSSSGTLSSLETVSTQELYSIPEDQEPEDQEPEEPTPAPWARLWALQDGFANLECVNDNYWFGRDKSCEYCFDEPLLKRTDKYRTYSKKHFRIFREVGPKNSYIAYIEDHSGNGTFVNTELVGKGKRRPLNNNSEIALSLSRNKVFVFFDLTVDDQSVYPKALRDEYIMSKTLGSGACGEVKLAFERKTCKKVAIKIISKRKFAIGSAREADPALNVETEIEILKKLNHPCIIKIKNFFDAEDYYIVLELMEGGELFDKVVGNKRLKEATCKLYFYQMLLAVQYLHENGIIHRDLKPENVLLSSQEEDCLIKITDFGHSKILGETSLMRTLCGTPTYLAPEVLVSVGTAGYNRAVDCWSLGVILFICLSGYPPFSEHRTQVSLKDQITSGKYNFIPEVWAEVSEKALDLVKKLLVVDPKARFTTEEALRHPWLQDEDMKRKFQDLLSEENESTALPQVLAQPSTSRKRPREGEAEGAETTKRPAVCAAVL

[4] = target: T1, ALK tyrosine kinase receptor; experiment: Inhibition of wild type ALK (unknown origin) after 30 mins by HTRF assay
[5] = Metabolic stability of the compound in human liver microsomes assessed as compound remaining at 1 uM after 30 mins by LC/MS/MS analysis in the presence of NADPH; format: ADME; settings: read-out: Stability
[6] = Half life in cannulated Sprague Dawley rat at 10 mg/kg administered through oral gavage by LC/MS/MS analysis; format: ADME, organism-based; settings: in vivo
CYP2C9 = CYP2C9 (Homo sapiens, UniProt P11712); experiment: Inhibition of CYP2C9 (unknown origin) at 10 uM; format: ADME
[7] = target: Tyrosine-protein kinase Yes (Homo sapiens) (UniProt P07947); experiment: Inhibition of human YES at 1 uM after 30 mins by fluorescence assay in presence of ATP
CYP2D6 = CYP2D6 (Homo sapiens, UniProt P10635); experiment: Inhibition of CYP2D6 (unknown origin) at 10 uM; format: ADME
CYP2D6, sequence (P10635 whole entry): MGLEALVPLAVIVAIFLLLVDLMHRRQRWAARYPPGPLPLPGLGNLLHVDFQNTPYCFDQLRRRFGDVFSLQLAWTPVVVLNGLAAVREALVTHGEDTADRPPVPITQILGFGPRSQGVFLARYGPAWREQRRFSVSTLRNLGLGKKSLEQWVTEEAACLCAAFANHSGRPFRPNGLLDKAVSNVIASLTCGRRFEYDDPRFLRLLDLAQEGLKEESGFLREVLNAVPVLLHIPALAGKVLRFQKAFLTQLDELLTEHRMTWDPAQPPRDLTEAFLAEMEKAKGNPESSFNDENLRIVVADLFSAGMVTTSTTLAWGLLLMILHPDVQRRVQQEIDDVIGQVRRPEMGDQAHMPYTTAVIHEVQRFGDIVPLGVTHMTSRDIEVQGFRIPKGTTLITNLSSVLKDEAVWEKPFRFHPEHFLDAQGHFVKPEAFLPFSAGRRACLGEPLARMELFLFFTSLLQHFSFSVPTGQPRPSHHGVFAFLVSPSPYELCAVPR

Mus musculus [8] = experiment: Toxicity in SCID mouse xenografted with human H3122 cells assessed as change in body weight at 50 mg/kg, po administered qd for 14 days measured during compound dosing; format: organism-based; settings: in vivo, 336 h
[9] = target: Tyrosine-protein kinase receptor UFO (Homo sapiens) (UniProt P30530); experiment: Inhibition of human AXL at 1 uM after 30 mins by fluorescence assay in presence of ATP
Tyrosine-protein kinase receptor UFO (Homo sapiens), sequence (P30530 whole entry): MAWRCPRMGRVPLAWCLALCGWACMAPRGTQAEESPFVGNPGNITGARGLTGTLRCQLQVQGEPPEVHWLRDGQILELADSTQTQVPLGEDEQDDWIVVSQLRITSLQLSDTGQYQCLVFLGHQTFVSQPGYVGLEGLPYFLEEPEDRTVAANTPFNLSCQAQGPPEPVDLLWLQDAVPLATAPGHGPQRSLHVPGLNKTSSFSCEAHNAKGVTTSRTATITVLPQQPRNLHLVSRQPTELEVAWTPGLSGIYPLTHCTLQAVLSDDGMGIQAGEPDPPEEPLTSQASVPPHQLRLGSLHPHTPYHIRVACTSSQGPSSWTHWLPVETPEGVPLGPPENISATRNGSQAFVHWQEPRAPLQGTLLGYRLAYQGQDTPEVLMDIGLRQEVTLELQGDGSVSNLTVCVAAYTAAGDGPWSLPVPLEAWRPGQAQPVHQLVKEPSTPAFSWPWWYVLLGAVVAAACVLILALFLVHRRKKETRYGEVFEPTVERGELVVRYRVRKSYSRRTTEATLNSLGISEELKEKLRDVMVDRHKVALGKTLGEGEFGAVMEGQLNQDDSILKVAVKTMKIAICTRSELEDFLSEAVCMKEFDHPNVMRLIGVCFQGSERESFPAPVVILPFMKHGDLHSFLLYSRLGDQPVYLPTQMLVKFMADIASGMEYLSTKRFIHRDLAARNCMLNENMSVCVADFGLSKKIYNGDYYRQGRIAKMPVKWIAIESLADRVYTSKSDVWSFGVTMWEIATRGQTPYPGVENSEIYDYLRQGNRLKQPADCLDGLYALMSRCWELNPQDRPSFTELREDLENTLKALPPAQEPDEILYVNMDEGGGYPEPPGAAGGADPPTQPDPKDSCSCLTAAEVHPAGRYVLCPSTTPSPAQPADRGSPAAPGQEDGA

NCI-H3122 [10] = experiment: Antitumor activity against human NCI-H3122 cells xenografted in SCID mouse assessed as tumor growth inhibition at 50 mg/kg, po administered qd for 14 days; format: functional, organism-based
[11] = target: Testis-specific serine/threonine-protein kinase 1 (Homo sapiens) (UniProt Q9BXA7); experiment: Inhibition of human TSSK1 at 1 uM after 30 mins by fluorescence assay in presence of ATP
[12] = target: Activated CDC42 kinase 1 (Homo sapiens) (UniProt Q07912); experiment: Inhibition of human ACK1 at 1 uM after 30 mins by fluorescence assay in presence of ATP
CYP1A2 = CYP1A2 (Homo sapiens, UniProt P05177); experiment: Inhibition of CYP1A2 (unknown origin) at 10 uM; format: ADME
[13] = target: Proto-oncogene tyrosine-protein kinase ROS (Homo sapiens) (UniProt P08922); experiment: Inhibition of human ROS at 1 uM after 30 mins by fluorescence assay in presence of ATP
[14] = Cmax in cannulated Sprague Dawley rat at 10 mg/kg administered through oral gavage by LC/MS/MS analysis; format: ADME, organism-based; design: dose 10 mg/kg, route oral; settings: in vivo
[15] = AUCinfinity in cannulated Sprague Dawley rat at 10 mg/kg administered through oral gavage by LC/MS/MS analysis; format: ADME, organism-based; design: dose 10 mg/kg, time infinity, route oral; settings: in vivo
[16] = target: Serine/threonine-protein kinase TAO1 (Homo sapiens) (UniProt Q7L7X3); experiment: Inhibition of human TAO1 at 1 uM after 30 mins by fluorescence assay in presence of ATP
[17] = target: Focal adhesion kinase 1 (Homo sapiens) (UniProt Q05397); experiment: Inhibition of human FAK at 1 uM after 30 mins by fluorescence assay in presence of ATP
[18] = target: Protein-tyrosine kinase 2-beta (Homo sapiens) (UniProt Q14289); experiment: Inhibition of human PYK2 at 1 uM after 30 mins by fluorescence assay in presence of ATP
[19] = target: Serine/threonine-protein kinase N2 (Homo sapiens) (UniProt Q16513); experiment: Inhibition of human PRK2 at 1 uM after 30 mins by fluorescence assay in presence of ATP
[20] = target: Ephrin type-A receptor 1 (Homo sapiens) (UniProt P21709); experiment: Inhibition of human EPHA1 at 1 uM after 30 mins by fluorescence assay in presence of ATP
[21] = Metabolic stability of the compound in mouse liver microsomes assessed as compound remaining at 1 uM after 30 mins by LC/MS/MS analysis in the presence of NADPH; format: ADME; settings: read-out: Stability
[22] = target: Insulin receptor (Homo sapiens) (UniProt P06213); experiment: Inhibition of human IR at 1 uM after 30 mins by fluorescence assay in presence of ATP
[23] = target: Serine/threonine-protein kinase 10 (Homo sapiens) (UniProt O94804); experiment: Inhibition of human LOK at 1 uM after 30 mins by fluorescence assay in presence of ATP
BaF3 = experiment: Inhibition of ALK L1196M mutant in mouse BA/F3 cells assessed as inhibition of cell proliferation after 72 hrs by WST1 assay; format: cell-based
[24] = target: Aurora kinase B (Homo sapiens) (UniProt Q96GD4); experiment: Inhibition of human Aurora B at 1 uM after 30 mins by fluorescence assay in presence of ATP
[25] = target: NUAK family SNF1-like kinase 1 (Homo sapiens) (UniProt O60285); experiment: Inhibition of human ARK5 at 1 uM after 30 mins by fluorescence assay in presence of ATP
[26] = target: Ephrin type-B receptor 1 (Homo sapiens) (UniProt P54762); experiment: Inhibition of human EPHB1 at 1 uM after 30 mins by fluorescence assay in presence of ATP
Ephrin type-B receptor 1 (Homo sapiens), sequence (P54762 whole entry): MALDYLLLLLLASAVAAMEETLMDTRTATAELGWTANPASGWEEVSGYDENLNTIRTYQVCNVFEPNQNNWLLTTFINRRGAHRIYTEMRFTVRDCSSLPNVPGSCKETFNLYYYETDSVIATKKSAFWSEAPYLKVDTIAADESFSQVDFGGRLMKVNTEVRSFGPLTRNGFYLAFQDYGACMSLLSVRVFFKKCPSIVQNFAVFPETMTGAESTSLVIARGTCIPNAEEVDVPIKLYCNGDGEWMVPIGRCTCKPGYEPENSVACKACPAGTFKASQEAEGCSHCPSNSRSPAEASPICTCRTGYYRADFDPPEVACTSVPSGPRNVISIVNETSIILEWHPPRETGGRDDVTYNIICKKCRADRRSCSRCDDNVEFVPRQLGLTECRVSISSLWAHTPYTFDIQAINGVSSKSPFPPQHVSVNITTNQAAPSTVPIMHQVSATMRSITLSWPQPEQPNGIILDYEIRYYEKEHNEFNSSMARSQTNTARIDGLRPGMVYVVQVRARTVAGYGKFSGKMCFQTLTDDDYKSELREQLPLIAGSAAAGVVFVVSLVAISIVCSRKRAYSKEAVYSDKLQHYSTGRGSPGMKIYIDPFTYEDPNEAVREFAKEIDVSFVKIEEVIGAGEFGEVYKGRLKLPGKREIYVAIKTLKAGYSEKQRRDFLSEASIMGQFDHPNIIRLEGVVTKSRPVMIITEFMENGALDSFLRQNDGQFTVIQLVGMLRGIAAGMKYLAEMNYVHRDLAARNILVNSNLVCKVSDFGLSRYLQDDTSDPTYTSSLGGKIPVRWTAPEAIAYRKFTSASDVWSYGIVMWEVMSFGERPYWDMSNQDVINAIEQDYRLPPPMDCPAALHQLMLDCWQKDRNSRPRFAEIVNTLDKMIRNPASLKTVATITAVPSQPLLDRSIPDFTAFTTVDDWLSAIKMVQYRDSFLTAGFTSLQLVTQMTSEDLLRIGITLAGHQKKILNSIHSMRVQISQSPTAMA

[27] = target: Epidermal growth factor receptor (Homo sapiens) (UniProt P00533); experiment: Inhibition of human EGFR at 1 uM after 30 mins by fluorescence assay in presence of ATP
[28] = target: Tyrosine-protein kinase Mer (Homo sapiens) (UniProt Q12866); experiment: Inhibition of human MER at 1 uM after 30 mins by fluorescence assay in presence of ATP
CYP2C19 = CYP2C19 (Homo sapiens, UniProt P33261); experiment: Inhibition of CYP2C19 (unknown origin) at 10 uM; format: ADME
Mus musculus [29] = experiment: Toxicity in SCID mouse xenografted with human H3122 cells assessed as change in body weight at 25 mg/kg, po administered qd for 14 days measured during compound dosing; format: organism-based; settings: in vivo, 336 h
[30] = Tmax in cannulated Sprague Dawley rat at 10 mg/kg administered through oral gavage by LC/MS/MS analysis; format: ADME, organism-based; settings: in vivo
[31] = target: Insulin-like growth factor 1 receptor (Homo sapiens) (UniProt P08069); experiment: Inhibition of human IGF1R at 1 uM after 30 mins by fluorescence assay in presence of ATP
Insulin-like growth factor 1 receptor (Homo sapiens), sequence (P08069 31-736 limits assumed): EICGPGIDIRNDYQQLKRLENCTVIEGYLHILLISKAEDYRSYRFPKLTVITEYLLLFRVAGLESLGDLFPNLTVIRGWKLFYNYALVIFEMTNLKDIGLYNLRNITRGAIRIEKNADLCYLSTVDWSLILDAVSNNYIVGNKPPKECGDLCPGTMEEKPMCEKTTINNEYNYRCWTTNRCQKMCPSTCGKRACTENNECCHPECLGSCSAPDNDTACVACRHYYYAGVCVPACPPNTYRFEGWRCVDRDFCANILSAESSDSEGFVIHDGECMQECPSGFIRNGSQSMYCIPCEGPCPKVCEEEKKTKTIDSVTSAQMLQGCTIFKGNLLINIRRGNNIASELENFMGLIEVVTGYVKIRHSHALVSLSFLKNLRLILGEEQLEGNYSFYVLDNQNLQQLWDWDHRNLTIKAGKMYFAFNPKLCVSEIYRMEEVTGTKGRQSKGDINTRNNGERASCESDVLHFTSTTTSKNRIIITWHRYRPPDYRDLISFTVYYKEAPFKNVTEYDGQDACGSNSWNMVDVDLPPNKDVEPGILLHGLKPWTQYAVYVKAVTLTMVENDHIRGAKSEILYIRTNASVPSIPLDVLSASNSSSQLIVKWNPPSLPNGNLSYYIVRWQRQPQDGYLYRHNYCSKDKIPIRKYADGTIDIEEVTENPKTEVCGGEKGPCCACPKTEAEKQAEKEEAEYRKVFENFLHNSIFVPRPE
Insulin-like growth factor 1 receptor (Homo sapiens), sequence (P08069 741-1367 limits assumed): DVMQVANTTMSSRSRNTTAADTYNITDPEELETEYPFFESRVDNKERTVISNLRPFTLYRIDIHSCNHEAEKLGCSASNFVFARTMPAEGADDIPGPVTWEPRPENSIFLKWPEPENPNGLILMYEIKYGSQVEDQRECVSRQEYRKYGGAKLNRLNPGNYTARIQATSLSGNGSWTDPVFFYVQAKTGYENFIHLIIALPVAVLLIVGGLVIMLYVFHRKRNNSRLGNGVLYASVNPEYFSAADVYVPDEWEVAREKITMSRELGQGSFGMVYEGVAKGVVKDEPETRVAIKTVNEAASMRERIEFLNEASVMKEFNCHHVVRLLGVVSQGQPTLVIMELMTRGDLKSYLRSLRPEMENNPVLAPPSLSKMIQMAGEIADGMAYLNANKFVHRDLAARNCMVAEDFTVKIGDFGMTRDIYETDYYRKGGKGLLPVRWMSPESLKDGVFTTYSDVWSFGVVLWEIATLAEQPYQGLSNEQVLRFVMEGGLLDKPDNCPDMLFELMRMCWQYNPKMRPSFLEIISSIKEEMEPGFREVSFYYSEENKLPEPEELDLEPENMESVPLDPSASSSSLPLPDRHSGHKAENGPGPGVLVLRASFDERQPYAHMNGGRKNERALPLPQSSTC

[32] = target: Receptor-type tyrosine-protein kinase FLT3 (Homo sapiens) (UniProt P36888); experiment: Inhibition of human FLT3 at 1 uM after 30 mins by fluorescence assay in presence of ATP
CYP3A4 = CYP3A4 (Homo sapiens, UniProt P08684); experiment: Inhibition of CYP3A4 (unknown origin) at 10 uM; format: ADME
EML4-ALK (Homo sapiens) = EML4-ALK (Homo sapiens) (UniProt Q9UM73+Q9HC35); experiment: Inhibition of EML4-ALK in human NCI-H3122 cells assessed as inhibition of cell proliferation after 72 hrs by SRB assay; format: cell-based
[33] = target: Aurora kinase A (Homo sapiens) (UniProt O14965); experiment: Inhibition of human Aurora A at 1 uM after 30 mins by fluorescence assay in presence of ATP
[34] = target: ALK tyrosine kinase receptor (Homo sapiens, UniProt Q9UM73, L1196M); experiment: Inhibition of ALK L1196M mutant (unknown origin) after 30 mins by HTRF assay
[35] = AUCt in cannulated Sprague Dawley rat at 10 mg/kg administered through oral gavage by LC/MS/MS analysis; format: ADME, organism-based; settings: in vivo
[36] = target: Rho-associated protein kinase 2 (Homo sapiens) (UniProt O75116); experiment: Inhibition of human ROCK2 at 1 uM after 30 mins by fluorescence assay in presence of ATP
[37] = target: Ribosomal protein S6 kinase alpha-1 (Homo sapiens) (UniProt Q15418); experiment: Inhibition of human RSK1 at 1 uM after 30 mins by fluorescence assay in presence of ATP
[38] = target: High affinity nerve growth factor receptor (Homo sapiens) (UniProt P04629); experiment: Inhibition of human TRKA at 1 uM after 30 mins by fluorescence assay in presence of ATP
NCI-H3122 [39] = experiment: Antitumor activity against human NCI-H3122 cells xenografted in SCID mouse assessed as tumor growth inhibition at 25 mg/kg, po administered qd for 14 days; format: functional, organism-based

inhibition [1]: 100%
inhibition [2]: 100%
inhibition [3]: 99%
IC50 [4]: 0.7 nM
remaining at 0.5 h, 1 µM [5]: 56%
half-life [6]: 9.5 h
inhibition at 10 µM (CYP2C9): 38%
inhibition [7]: 95%
inhibition at 10 µM (CYP2D6): 31%
inhibition [9]: 97%
inhibition [11]: 96%
inhibition [12]: 100%
inhibition at 10 µM (CYP1A2): 9.5%
inhibition [13]: 96%
Cmax [14]: 582 ng/mL
AUC(0-inf) [15]: 10900 ng·h/mL
inhibition [16]: 96%
inhibition [17]: 100%
inhibition [18]: 98%
inhibition [19]: 93%
inhibition [20]: 91%
remaining at 0.5 h, 1 µM [21]: 23%
inhibition [22]: 100%
inhibition [23]: 96%
inhibition [24]: 97%
inhibition [25]: 96%
inhibition [26]: 92%
inhibition [27]: 99%
inhibition [28]: 100%
inhibition at 10 µM (CYP2C19): 72%
Tmax [30]: 5.33 h
inhibition [31]: 100%
inhibition [32]: 100%
inhibition at 10 µM (CYP3A4): 97%
inhibition [33]: 99%
IC50 [34]: 1.5 nM
AUC(0-t) [35]: 8750 ng·h/mL
inhibition [36]: 92%
inhibition [37]: 100%
inhibition [38]: 95%
SMILES: COc1cc2c(cc1Nc1ncc(Cl)c(Nc3ccccc3S(=O)(=O)C(C)C)n1)CCC(N)C2(C)C (stereo unspecified)
Activity (Mus musculus [8]): Non-toxic
TGI (NCI-H3122 [10]): Active
CC50 (BaF3): 62 nM
Activity (Mus musculus [29]): Non-toxic
CC50 (EML4-ALK (Homo sapiens)): 16 nM
TGI (NCI-H3122 [39]): Active
